Results published in patent US20110053916A1 (Vertex Pharmaceuticals Incorporated, priority 2009, published 2011).
pKi: −log10 of the molar value.

Columns and labels:
[1] = target: T1, PknB (Mycobacterium tuberculosis, UniProt P9WI81); assay: biochemical; set-up: species or system M. tuberculosis; conditions: 3 nM PknB, 6 uM GarA, 3 μM ATP, 30 min; competitive tight-binding fit; several symbols in a cell = repeat determinations; read-out: Ki Values
T1 construct: made in house

[2] = tested on: Mycobacterium tuberculosis H37Ra; assay: Mycobacterium tuberculosis growth inhibition assay (microtiter dilution, resazurin reduction); assay type: cell-based; conditions: 7H9 broth, 9 days + 24 h resazurin, lowest concentration inhibiting resazurin reduction by >70%, several symbols in a cell = repeat determinations
Procedure, shortened: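 M. tuberculosis H37Ra at ~1×10^6 cells/mL in 7H9 broth plus 10% ADC, exposed to 2-fold serial dilutions (7 or 11 steps) at 37 °C for 9 days. Resazurin then added, fluorescence (492/595 nm) read at baseline and after 24 h; MIC = lowest concentration inhibiting resazurin reduction >70% versus DMSO.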

T1 sequence (P9WI81 whole entry): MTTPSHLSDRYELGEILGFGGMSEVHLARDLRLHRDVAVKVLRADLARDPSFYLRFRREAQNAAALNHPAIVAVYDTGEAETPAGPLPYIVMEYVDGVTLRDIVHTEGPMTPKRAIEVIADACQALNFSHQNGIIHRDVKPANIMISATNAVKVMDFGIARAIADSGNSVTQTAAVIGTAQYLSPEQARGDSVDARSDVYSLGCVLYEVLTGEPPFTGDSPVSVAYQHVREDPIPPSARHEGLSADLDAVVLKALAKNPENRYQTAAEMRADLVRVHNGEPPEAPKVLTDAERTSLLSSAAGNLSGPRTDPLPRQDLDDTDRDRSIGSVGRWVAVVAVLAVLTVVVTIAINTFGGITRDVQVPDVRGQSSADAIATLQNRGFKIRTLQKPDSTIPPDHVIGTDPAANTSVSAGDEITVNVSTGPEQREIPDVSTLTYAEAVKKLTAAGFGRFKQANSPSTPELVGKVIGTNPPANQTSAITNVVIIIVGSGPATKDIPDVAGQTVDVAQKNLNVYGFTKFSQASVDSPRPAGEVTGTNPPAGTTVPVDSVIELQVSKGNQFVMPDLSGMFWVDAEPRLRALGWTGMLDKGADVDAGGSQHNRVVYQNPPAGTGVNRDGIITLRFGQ

## COC(=O)NCc1ccc(-c2ncc(Cl)c(Nc3cc(C4CC4)n[nH]3)n2)s1 [Compound 287, methyl [[5-[5-chloro-4-[(5-cyclopropyl-2H-pyrazol-3-yl)amino]-pyrimidin-2-yl]-2-thienyl]methylamino]formate]
[1]
  pKi: 7.30 to 8.00
[2]
  MIC values: B+

## NS(=O)(=O)c1ccc(-c2nc(Nc3cc(C4CC4)n[nH]3)cc(N3CCOCC3)n2)s1 [Compound 290, 5-[4-[(5-cyclopropyl-2H-pyrazol-3-yl)amino]-6-morpholino-pyrimidin-2-yl]thiophene-2-sulfonamide]
[1]
  pKi: 6.00 to 6.30
[2]
  MIC values: B++

## COc1cc(Nc2cc(C3CC3)n[nH]2)nc(-c2ccc(S(N)(=O)=O)s2)n1 [Compound 293, 5-[4-[(5-cyclopropyl-2H-pyrazol-3-yl)amino]-6-methoxy-pyrimidin-2-yl]thiophene-2-sulfonamide]
[1]
  pKi: 6.30 to 7.00
[2]
  MIC values: B++

## Nc1cc(Nc2cc(C3CC3)n[nH]2)nc(-c2ccc(S(N)(=O)=O)s2)n1 [Compound 294, 5-[4-amino-6-[(5-cyclopropyl-2H-pyrazol-3-yl)amino]-pyrimidin-2-yl]thiophene-2-sulfonamide]
[1]
  pKi: 5.40 to 5.70
[2]
  MIC values: B+

## CC(C)(C)NS(=O)(=O)c1ccc(-c2nccc(Nc3cc(C4CC4)[nH]n3)n2)cn1 [Compound 300, 5-[4-[(5-cyclopropyl-1H-pyrazol-3-yl)amino]pyrimidin-2-yl]-N-tert-butyl-pyridine-2-sulfonamide]
[1]
  pKi: 7.00 to 7.30
[2]
  MIC values: B+

## NS(=O)(=O)c1ccc(-c2nccc(Nc3cc(C4CC4)[nH]n3)n2)cn1 [Compound 301, 5-[4-[(5-cyclopropyl-1H-pyrazol-3-yl)amino]pyrimidin-2-yl]pyridine-2-sulfonamide]
[1]
  pKi: 7.00 to 7.30
[2]
  MIC values: B+

## NC(=O)c1ncc(Cl)c(Nc2cc(C3CC3)[nH]n2)n1 [Compound 303, 5-chloro-4-[(5-cyclopropyl-1H-pyrazol-3-yl)amino]-pyrimidine-2-carboxamide]
[1]
  pKi: 5.40 to 5.70
[2]
  MIC values: B+

## NC(=S)c1ncc(Cl)c(Nc2cc(C3CC3)[nH]n2)n1 [Compound 305, 5-chloro-4-[(5-cyclopropyl-1H-pyrazol-3-yl)amino]-pyrimidine-2-carbothioamide]
[1]
  pKi: 6.00 to 6.30
[2]
  MIC values: A, B++

## O=S(=O)(O)c1ccc(-c2ncc(Cl)c(Nc3cc(C4CC4)[nH]n3)n2)s1 [Compound 306, 5-[5-chloro-4-[(5-cyclopropyl-1H-pyrazol-3-yl)amino]-pyrimidin-2-yl]thiophene-2-sulfonic acid]
[1]
  pKi: 7.30 to 8.00
[2]
  MIC values: B+

## O=S(=O)(c1ccc(-c2ncc(Cl)c(Nc3cc(C4CC4)[nH]n3)n2)s1)n1cccc1 [Compound 307, 5-chloro-N-(5-cyclopropyl-1H-pyrazol-3-yl)-2-(5-pyrrol-1-ylsulfonyl-2-thienyl)-pyrimidin-4-amine]
[1]
  pKi: 7.30 to 8.00
[2]
  MIC values: B+

## CC(=O)c1ccc(-c2nccc(Nc3cc(C4CC4)[nH]n3)n2)cc1 [Compound 308, 1-[4-[4-[(5-cyclopropyl-1H-pyrazol-3-yl)amino]pyrimidin-2-yl]phenyl]ethanone]
[1]
  pKi: 7.30 to 8.00
[2]
  MIC values: B+

## CC(O)c1ccc(-c2nccc(Nc3cc(C4CC4)[nH]n3)n2)cc1 (stereo not shown) [Compound 312, 1-[4-[4-[(5-cyclopropyl-1H-pyrazol-3-yl)amino]pyrimidin-2-yl]phenyl]ethanol]
[1]
  pKi: 7.30 to 8.00
[2]
  MIC values: B+

## CC(=O)OCCc1cnc(-c2ccc(S(N)(=O)=O)s2)nc1Nc1cc(C2CC2)[nH]n1 [Compound 313, 2-(4-(5-cyclopropyl-1H-pyrazol-3-ylamino)-2-(5-sulfamoylthiophen-2-yl)pyrimidin-5-yl)ethyl acetate]
[1]
  pKi: 7.30 to 8.00
[2]
  MIC values: A+

## CC(O)c1cccc(-c2nccc(Nc3cc(C4CC4)[nH]n3)n2)c1 (stereo not shown) [Compound 316, 1-[3-[4-[(5-cyclopropyl-1H-pyrazol-3-yl)amino]pyrimidin-2-yl]phenyl]ethanol]
[1]
  pKi: 7.30 to 8.00
[2]
  MIC values: B+

## CC(=O)c1cccc(-c2nccc(Nc3cc(C4CC4)[nH]n3)n2)c1 [Compound 317, 1-[3-[4-[(5-cyclopropyl-1H-pyrazol-3-yl)amino]pyrimidin-2-yl]phenyl]ethanone]
[1]
  pKi: 7.30 to 8.00
[2]
  MIC values: B+

## Cc1cc(-c2ccc(S(N)(=O)=O)s2)nc(Nc2cc(C3CC3)n[nH]2)n1 [Compound 322, 5-[2-[(5-cyclopropyl-2H-pyrazol-3-yl)amino]-6-methyl-pyrimidin-4-yl]thiophene-2-sulfonamide]
[1]
  pKi: 8.00 to 9.00
[2]
  MIC values: B++

## NS(=O)(=O)c1ccc(-c2nccc(Nc3cc(C4CC4)[nH]n3)n2)cc1 [Compound 323, 4-[4-[(5-cyclopropyl-1H-pyrazol-3-yl)amino]pyrimidin-2-yl]benzenesulfonamide]
[1]
  pKi: 7.30 to 8.00
[2]
  MIC values: B++
